Values joined by “and” are separate entries in the source; they are usually repeats but may differ in a detail not shown here. Equal entries are not always repeated.
Assays:
HIV-1 [1] = assay: HIV transcription as cell-associated unspliced HIV-1 RNA in CD4+ T cells (digital droplet PCR), REDUC Part A; assay type: in vivo, human; conditions: romidepsin 5 mg/m^2 i.v. days 0, 7, 14; for CA US HIV RNA, Mean: mean of subjects
Procedure: Part A of the clinical study contained three phases. […] Second, a viral reactivation phase of 3 weeks (visit 2 to visit 7) consisting of one cycle of romidepsin infusions at a dosing of 5 mg/m^2 administered intravenously over a 4 hour period. De-escalation down to 2.5 mg/m^2 was planned in case of dose-limiting toxicity was observed. Romidepsin was infused on days 0, 7, and 14. Third, a post-activation phase of ˜9 weeks (visit 8 to visit 11) to assess the effect of romidepsin on the size of latent HIV-1I reservoir.
HIV transcription was measured as copies of cell-associated unspliced HIV-1 RNA/106 CD4+ T cells using digital droplet PCR. CD4+ T-cells were isolated from PBMCs using Miltenyi Biotec negative bead separation kit (CD4 T cell isolation, #130-096-533) as described with LD separation columns, lysed (Lysis buffer from Qiagen DNA/RNA extraction kit), and stored ad −80° C. until extraction of RNA and DNA (Allprep isolation kit, Qiagen). Reverse transcription, amplification and quantitation of cell-associated unspliced HIV RNA from HIV patients was performed as follows. In summary, HIV unspliced RNA was detected on the BioRad QX100 droplet digital platform using a defined primer/probe set and related to total cell input by quantitation of the IPO8 (Importin 8) and TBP (Tata Binding Protein) gene transcription. A mixture of 11.5 μl patient extracted mRNA in nuclease-free dH, 1 μl 10 mM dNTP U1240 (Promega), 0.5 μl 3 μg/μl Random hexamers (Applied Biosystems) and 0.5 μl of 0.5 μg/μl Oligo(dT)12-18 Primer (Invitrogen) was prepared, incubated at 65° C. for 5 min, and then immediately on ice for 5 min. First-strand cDNA production was performed by adding a mixture of 4.0 μl 5× First Strand Buffer (Invitrogen), 1.0 μl 0.1M DTT (Invitrogen), 0.5 μl RNAseOUT RNAse inhibitor (40 U/μl, Invitrogen), 1.0 μl Superscript III Reverse Transcriptase (200 U/μl, Invitrogen) for a total reaction volume of 20 μl and incubating at 42° C. for 45 min, then 80° C. for 15 min in a PCR machine. The reaction was held at 4° C. or on ice until performing the downstream assay. […] To adjust for the total cellular input in each sample, relative copy numbers were normalized to two human endogenous control genes TBP PL (VIC) assay ID: Hs00183533_m1 and IPO8 (FAM) assay ID: Hs00427620_m1 (TaqMan gene expression assay, LifeTechnologies, Denmark). All HIV RT samples were run in six replicates while the reference genes were assayed in duplicate. The PCR reaction mixture was loaded into the BioRad QX-100 emulsification device fractionating each sample into 20,000 nanoliter-sized droplets following the manufacturer's instructions. PCR cycling conditions were as follows: 95° C. for 10 min, followed by 40 cycles of a 30 second denaturation at 95° C. followed by a 59° C. extension for 60 seconds and a final 10 minutes at 98° C. After cycling droplets were subsequently read automatically by the QX100 droplet reader (BioRad) and the data was analyzed with the QuantaSoft™ analysis software (BioRad).

HIV-1 [2] = assay: Plasma HIV-1 RNA by transcription mediated amplification (TMA) NAT screen, REDUC Part A; assay type: in vivo, human; conditions: for TMA assay, Percent positive: share of subjects positive; for TMA assay, Percent positive / TMA assay, presence of HIV RNA: romidepsin 5 mg/m^2 i.v. days 0, 7, 14; for TMA assay, presence of HIV RNA: individual subjects 1101, 1102, 1103, 1105, 1106, 1107 = c1-c6
[3] = human, in vivo
Procedure: Part A of the clinical study contained three phases. First, a pre-treatment phase of 2-4 weeks (visit 1-visit 2a) to confirm the stability of the latent HIV-1 reservoir and determine baseline HIV-1 T lymphocyte specific immunity. Second, a viral reactivation phase of 3 weeks (visit 2 to visit 7) consisting of one cycle of romidepsin infusions at a dosing of 5 mg/m^2 administered intravenously over a 4 hour period. De-escalation down to 2.5 mg/m^2 was planned in case of dose-limiting toxicity was observed. Romidepsin was infused on days 0, 7, and 14. Third, a post-activation phase of ˜9 weeks (visit 8 to visit 11) to assess the effect of romidepsin on the size of latent HIV-1I reservoir.
The primary objective of this part of the study was to evaluate the safety and tolerability of romidepsin at a reduced dosing of 5 mg/m^2 in HIV-infected patients.
The primary endpoint of this part was safety and tolerability; evaluation as measured by adverse events (AE), adverse reactions (AR), serious adverse events (SAE), serious adverse reactions (SAR), serious unexpected adverse reactions (SUSAR).

C/C=C1\NC(=O)[C@H]2CSSCC/C=C/[C@H](CC(=O)N[C@H](C(C)C)C(=O)N2)OC(=O)[C@H](C(C)C)NC1=O [romidepsin, (1S,4S,7Z,10S,16E,21R)-7-ethylidene-4,21-bis(1-methylethyl)-2-oxa-12,13-dithia-5,8,20,23-tetraazabicyclo[8.7.6]tricos-16-ene-3,6,9,19,22-pentone]
CA US HIV RNA, Mean (HIV-1 [1]; visit 10 (day 56)): 13.8 HIV RNA copies/10^6 CD4+ T cel | CA US HIV RNA (HIV-1 [1]; visit 11 (day 84), individual subjects 1101, 1102, 1103, 1105, 1106, 1107 = c1-c6): 22.0 HIV RNA copies/10^6 CD4+ T cel and 32.7 HIV RNA copies/10^6 CD4+ T cel and 11.2 HIV RNA copies/10^6 CD4+ T cel and 8.0 HIV RNA copies/10^6 CD4+ T cel and 35.1 HIV RNA copies/10^6 CD4+ T cel and 12.2 HIV RNA copies/10^6 CD4+ T cel | CA US HIV RNA, Mean (HIV-1 [1]; visit 11 (day 84)): 20.2 HIV RNA copies/10^6 CD4+ T cel | TMA assay, Percent positive (HIV-1 [2]; Visit 1 (day −21, pre-treatment)): 50% | TMA assay, Percent positive (HIV-1 [2]; Visit 2A (day 0, pre-treatment)): 50% | TMA assay, Percent positive (HIV-1 [2]; Visit 2B (day 0 + 4 h)): 67% | TMA assay, Percent positive (HIV-1 [2]; Visit 3 (day 1)): 83% | TMA assay, Percent positive (HIV-1 [2]; Visit 4 (day 3)): 83% | TMA assay, Percent positive (HIV-1 [2]; Visit 5A (day 7)): 50% | TMA assay, Percent positive (HIV-1 [2]; Visit 5B (day 7 + 4 h)): 100% | TMA assay, Percent positive (HIV-1 [2]; Visit 6 (day 10)): 100% | TMA assay, Percent positive (HIV-1 [2]; Visit 7A (day 14)): 50% | TMA assay, Percent positive (HIV-1 [2]; Visit 7B (day 14 + 4 h)): 67% | TMA assay, Percent positive (HIV-1 [2]; Visit 8 (day 17)): 100% | TMA assay, Percent positive (HIV-1 [2]; Visit 9 (day 21)): 33% | Plasma HIV-1 RNA detection by transcription-mediated amplification assay (HIV-1 [2]; post-infusion time-points compared with baseline): detected more frequently | TMA assay, presence of HIV RNA (HIV-1 [2]; visit 1 (day −21, pre-treatment)): 1 (3×) and 0 (3×) | TMA assay, presence of HIV RNA (HIV-1 [2]; visit 2A (day 0, pre-treatment)): 1 (3×) and 0 (3×) | TMA assay, presence of HIV RNA (HIV-1 [2]; visit 2B (day 0 + 4 h)): 1 (4×) and 0 (2×) | TMA assay, presence of HIV RNA (HIV-1 [2]; visit 3 (day 1)): 1 (5×) and 0 | TMA assay, presence of HIV RNA (HIV-1 [2]; visit 4 (day 3)): 1 (5×) and 0 | TMA assay, presence of HIV RNA (HIV-1 [2]; visit 5A (day 7)): 1 (3×) and 0 (3×) | TMA assay, presence of HIV RNA (HIV-1 [2]; visit 5B (day 7 + 4 h)): 1 | TMA assay, presence of HIV RNA (HIV-1 [2]; visit 6 (day 10)): 1 | TMA assay, presence of HIV RNA (HIV-1 [2]; visit 7A (day 14)): 1 (3×) and 0 (3×) | TMA assay, presence of HIV RNA (HIV-1 [2]; visit 7B (day 14 + 4 h)): 1 (4×) and 0 (2×) | TMA assay, presence of HIV RNA (HIV-1 [2]; visit 8 (day 17)): 1 | TMA assay, presence of HIV RNA (HIV-1 [2]; visit 9 (day 21)): 0 (4×) and 1 (2×) | grade II AEs [3]: Two
